According to patent EP4806898A1, “HETEROARYL DERIVATIVE COMPOUND AND USE THEREOF” (Voronoi Inc., priority 2023, dated 2025):

What was measured:
UWB1.289 cells = assay: Cell proliferation inhibitory activity in BRCA1/2-mutant or HRD-positive cells (Cell Titer-Glo); assay type: cell-based; conditions: UWB1289; UWB1.289 cells, 144 hours after compound treatment, Cell Titer-Glo, 1.5 nM to 10 µM; read-out: GI50 UWB1.289 BRCA1 mut
Outline: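 UWB1.289 cells (1,000/well) in 50% MEBM/50% RPMI1640 exposed to […], final 1.5 nM to 10 µM, for 144 h at 37 °C. Viable cells measured by CellTiter-Glo luminescence; GI50 calculated.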

recombinant USP1 protein = target: T1, recombinant USP1 protein (Homo sapiens, UniProt O94782, DEL125-138/DEL229-408/DEL608-737); assay: Binding affinity to recombinant USP1 protein by differential scanning fluorimetry; conditions: compound 100 µM; 0.03 mg/mL USP1 (Δ1-66, Δ125-138, Δ229-408, Δ608-737); Tm with compound minus Tm with DMSO; read-out: ΔTm (°C)
T1 sequence (O94782 with tags, fused parts or gaps DEL125-138/DEL229-408/DEL608-737): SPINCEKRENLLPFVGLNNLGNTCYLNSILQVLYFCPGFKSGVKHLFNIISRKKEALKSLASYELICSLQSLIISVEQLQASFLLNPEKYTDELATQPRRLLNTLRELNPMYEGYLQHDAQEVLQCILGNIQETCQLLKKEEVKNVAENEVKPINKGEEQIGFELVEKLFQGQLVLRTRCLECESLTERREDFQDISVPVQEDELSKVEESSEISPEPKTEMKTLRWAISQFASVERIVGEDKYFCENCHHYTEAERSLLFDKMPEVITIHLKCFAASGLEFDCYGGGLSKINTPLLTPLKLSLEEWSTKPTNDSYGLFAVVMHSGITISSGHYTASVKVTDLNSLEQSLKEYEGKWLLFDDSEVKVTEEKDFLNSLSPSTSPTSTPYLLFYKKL
Outline: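 USP1 (Δ1-66, Δ125-138, Δ229-408, Δ608-737) at 0.03 mg/mL with dye in 50 mM Tris-HCl pH 8.0, 150 mM NaCl, 2% glycerol, 1 mM DTT; compounds at 100 µM final. Tm read on real-time PCR instrument; ΔTm = Tm with compound minus Tm with DMSO.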

Compound	ΔTm at 100 µM (recombinant USP1 protein) [°C]	GI50 (UWB1.289 cells) [nM]
COc1ncnc(C2CC2)c1-c1ncc2cc(C(=O)NCC3CCC(F)(F)C3)n(Cc3ccc(-c4nc(C(F)(F)F)cn4C(C)C)cc3)c2n1 (stereo not shown) [Example 80, 2-(4-cyclopropyl-6-methoxypyrimidin-5-yl)-N-((3,3-difluorocyclopentyl)methyl)-7-(4-(1-isopropyl-4-(trifluoromethyl)-1H-imidazol-2-yl)benzyl)-7H-pyrrolo[2,3-d]pyrimidine-6-carboxamide]	> 5	100 to 500
COc1ncnc(C2CC2)c1-c1ncc2cc(C(=O)N[C@H](C)CCO)n(Cc3ccc(-c4nc(C(F)(F)F)cn4C(C)C)cc3)c2n1 [Example 83, (R)-2-(4-cyclopropyl-6-methoxypyrimidin-5-yl)-N-(4-hydroxybutan-2-yl)-7-(4-(1-isopropyl-4-(trifluoromethyl)-1H-imidazol-2-yl)benzyl)-7H-pyrrolo[2,3-d]pyrimidine-6-carboxamide]	> 5	< 100
COc1ncnc(C2CC2)c1-c1ncc2cc(C(=O)NCC3CCN(C)CC3)n(Cc3ccc(-c4nc(C(F)(F)F)cn4C(C)C)cc3)c2n1 [Example 87, 2-(4-cyclopropyl-6-methoxypyrimidin-5-yl)-7-(4-(1-isopropyl-4-(trifluoromethyl)-1H-imidazol-2-yl)benzyl)-N-((1-methylpiperidin-4-yl)methyl)-7H-pyrrolo[2,3-d]pyrimidine-6-carboxamide]	> 5	100 to 500
COc1ncnc(C2CC2)c1-c1ncc2cc(C(=O)NC34CC(F)(C3)C4)n(Cc3ccc(-c4nc(C(F)(F)F)cn4C(C)C)cc3)c2n1 [Example 89, 2-(4-cyclopropyl-6-methoxypyrimidin-5-yl)-N-(3-fluorobicyclo[1.1.1]pentan-1-yl)-7-(4-(1-isopropyl-4-(trifluoromethyl)-1H-imidazol-2-yl)benzyl)-7H-pyrrolo[2,3-d]pyrimidine-6-carboxamide]	> 5	100 to 500
COc1ncnc(C2CC2)c1-c1ncc2cc(C(=O)NCCC3CC(F)(F)C3)n(Cc3ccc(-c4nc(C(F)(F)F)cn4C(C)C)cc3)c2n1 [Example 90, 2-(4-cyclopropyl-6-methoxypyrimidin-5-yl)-N-(2-(3,3-difluorocyclobutyl)ethyl)-7-(4-(1-isopropyl-4-(trifluoromethyl)-1H-imidazol-2-yl)benzyl)-7H-pyrrolo[2,3-d]pyrimidine-6-carboxamide]	> 5	< 100

More lines, main results first:

ΔTm at 100 µM (recombinant USP1 protein) [°C]	Compound	GI50 (UWB1.289 cells) [nM]
> 5	CC[C@H](C)NC(=O)c1cc2cnc(-c3c(OC)ncnc3C3CC3)nc2n1Cc1ccc(-c2nc(C(F)(F)F)cn2C(C)C)cc1 [Example 82, (S)-N-(sec-butyl)-2-(4-cyclopropyl-6-methoxypyrimidin-5-yl)-7-(4-(1-isopropyl-4-(trifluoromethyl)-1H-imidazol-2-yl)benzyl)-7H-pyrrolo[2,3-d]pyrimidine-6-carboxamide]	< 100
> 5	COc1ncnc(C2CC2)c1-c1ncc2cc(C(=O)N[C@H](C)C(F)(F)F)n(Cc3ccc(-c4nc(C(F)(F)F)cn4C(C)C)cc3)c2n1 [Example 85, (R)-2-(4-cyclopropyl-6-methoxypyrimidin-5-yl)-7-(4-(1-isopropyl-4-(trifluoromethyl)-1H-imidazol-2-yl)benzyl)-N-(1,1,1-trifluoropropan-2-yl)-7H-pyrrolo[2,3-d]pyrimidine-6-carboxamide]	100 to 500
> 5	COc1ncnc(C2CC2)c1-c1ncc2cc(C(=O)N[C@@H](C)C(F)(F)F)n(Cc3ccc(-c4nc(C(F)(F)F)cn4C(C)C)cc3)c2n1 [Example 86, (S)-2-(4-cyclopropyl-6-methoxypyrimidin-5-yl)-7-(4-(1-isopropyl-4-(trifluoromethyl)-1H-imidazol-2-yl)benzyl)-N-(1,1,1-trifluoropropan-2-yl)-7H-pyrrolo[2,3-d]pyrimidine-6-carboxamide]	< 100
